The pKi is −log10 of the Ki, conventionally taken in molar units. Low readings indicate a large Ki, high ones a small Ki.

pKi: −log10 of the molar value. Activity calls are given as the source filed them. The rule behind the calls is not given here.

In one experiment the target is Carbonic anhydrase 9 (Homo sapiens, UniProt Q16790). Kind of experiment: Inhibition of human carbonic anhydrase 9 catalytic domain preincubated for 15 mins by CO2 hydration stopped-flow assay.
A further experiment addresses Carbonic anhydrase 1 (Homo sapiens, UniProt P00915). Kind of experiment: Inhibition of human carbonic anhydrase 1 preincubated for 15 mins by CO2 hydration stopped-flow assay.
Another experiment concerns the target Carbonic anhydrase 2 (Homo sapiens, UniProt P00918). As to the kind of experiment: Inhibition of human carbonic anhydrase 2 preincubated for 15 mins by CO2 hydration stopped-flow assay.
The test system of the next experiment is Oryctolagus cuniculus. As to the kind of experiment: Ocular hypotensive activity in sterile hypertonic saline injected hypertensive New Zealand white rabbit assessed as reduction in intraocular pressure at 1 % administered as eye drops up to 240 mins post injection. It is filed as functional, organism-based.

Chain of Carbonic anhydrase 1 (P00915 whole entry): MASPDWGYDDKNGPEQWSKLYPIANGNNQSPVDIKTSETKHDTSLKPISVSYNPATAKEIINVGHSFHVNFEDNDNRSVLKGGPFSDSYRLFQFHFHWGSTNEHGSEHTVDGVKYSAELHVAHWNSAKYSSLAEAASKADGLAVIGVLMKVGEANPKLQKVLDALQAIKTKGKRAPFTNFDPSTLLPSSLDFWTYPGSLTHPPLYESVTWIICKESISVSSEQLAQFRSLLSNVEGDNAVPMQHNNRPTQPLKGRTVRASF

Consider `CCCN(CCC)C(=O)S`, for which the results for the pKi on Carbonic anhydrase 9 and on Carbonic anhydrase 1 were 7.90 and under 5.70, respectively.
With `O=C(S)N1CCN(c2ccc(F)cc2)CC1`, on Carbonic anhydrase 9, the pKi is 8.19.
On to `CCCCN(CC)C(=O)S`, for which the figures for the pKi at Carbonic anhydrase 9 and on Carbonic anhydrase 2 were 8.21 and under 5.70, respectively.
`COc1ccc(CCNC(=O)S)cc1OC` had a pKi at Carbonic anhydrase 9 of 7.82.
As to `O=C(S)N1CCOCC1`, the pKi at Carbonic anhydrase 9 was 7.87; at Carbonic anhydrase 2, under 5.70.
Regarding `O=C(S)NCCc1ccccc1`, the result in the experiment on Oryctolagus cuniculus was Active. For the same compound, the pKi at Carbonic anhydrase 9 was 7.67; on Carbonic anhydrase 1 it was under 5.70.
As for `O=C(S)N1CCN(c2ccc(C(F)(F)F)cc2)CC1`, the pKi at Carbonic anhydrase 9 is 7.93; on Carbonic anhydrase 1 it was under 5.70.
Turning to `O=C(CN1CCN(C(=O)S)CC1)NC1CCCCC1`, the result with Oryctolagus cuniculus was Active. For the same compound, on Carbonic anhydrase 9, the pKi is 7.85.
In the case of `O=C(S)N1CCN(c2cccc(Cl)c2)CC1`, the pKi at Carbonic anhydrase 9 is 8.31; on Carbonic anhydrase 2, under 5.70.
For the compound `CN(Cc1ccccc1)C(=O)S`, the negative-log Ki (pKi) was 7.93 on Carbonic anhydrase 9, under 5.70 at Carbonic anhydrase 1 and under 5.70 at Carbonic anhydrase 2.
Take `CN1CCN(NC(=O)S)CC1`: the pKi at Carbonic anhydrase 9 is 8.11; at Carbonic anhydrase 1, under 5.70.
Consider `CCCCN(CCCC)C(=O)S`, for which the pKi at Carbonic anhydrase 9 is 8.17; on Carbonic anhydrase 2 it was under 5.70.
For the compound `CC(C)CN(CC(C)C)C(=O)S`, at Carbonic anhydrase 9, the pKi was 8.04.
The same measure, in the same setting: with `CCOC(=O)CN(C)C(=O)S` the figure was 7.66.
